Tests used:
β-gal II = target: T1, β-gal II (Bifidobacterium breve, UniProt D4BR09); assay: oNPG hydrolysis, o-nitrophenol release at […] nm, nonlinear regression; type: biochemical; settings: competitive vs oNPG; 50 mM sodium phosphate pH 6.5, 30°C
T1 construct: gene BIFBRE_04539; full length, C-terminal His6 tag kept (pET-21a), E. coli T7 Express with GroEL/GroES, IMAC; calculated 116,594 Da; homodimer 211 kDa; GH2; N-terminus from primer MNTTDDQ, C-terminus before tag DVNLELI

β-gal I = target: T2, β-gal I (Bifidobacterium breve, UniProt D4BLG2); assay: as above; type: biochemical; settings: competitive vs oNPG; 50 mM sodium phosphate pH 6.5, 30°C
T2 construct: gene BIFBRE_02894; full length, C-terminal His6 tag kept (pET-21a), E. coli T7 Express with GroEL/GroES, IMAC; calculated 116,127 Da; homodimer 220 kDa; GH2; N-terminus from primer MQGKAKT, C-terminus before tag DVTLELI
T2 sequence (D4BLG2 entry or part of it): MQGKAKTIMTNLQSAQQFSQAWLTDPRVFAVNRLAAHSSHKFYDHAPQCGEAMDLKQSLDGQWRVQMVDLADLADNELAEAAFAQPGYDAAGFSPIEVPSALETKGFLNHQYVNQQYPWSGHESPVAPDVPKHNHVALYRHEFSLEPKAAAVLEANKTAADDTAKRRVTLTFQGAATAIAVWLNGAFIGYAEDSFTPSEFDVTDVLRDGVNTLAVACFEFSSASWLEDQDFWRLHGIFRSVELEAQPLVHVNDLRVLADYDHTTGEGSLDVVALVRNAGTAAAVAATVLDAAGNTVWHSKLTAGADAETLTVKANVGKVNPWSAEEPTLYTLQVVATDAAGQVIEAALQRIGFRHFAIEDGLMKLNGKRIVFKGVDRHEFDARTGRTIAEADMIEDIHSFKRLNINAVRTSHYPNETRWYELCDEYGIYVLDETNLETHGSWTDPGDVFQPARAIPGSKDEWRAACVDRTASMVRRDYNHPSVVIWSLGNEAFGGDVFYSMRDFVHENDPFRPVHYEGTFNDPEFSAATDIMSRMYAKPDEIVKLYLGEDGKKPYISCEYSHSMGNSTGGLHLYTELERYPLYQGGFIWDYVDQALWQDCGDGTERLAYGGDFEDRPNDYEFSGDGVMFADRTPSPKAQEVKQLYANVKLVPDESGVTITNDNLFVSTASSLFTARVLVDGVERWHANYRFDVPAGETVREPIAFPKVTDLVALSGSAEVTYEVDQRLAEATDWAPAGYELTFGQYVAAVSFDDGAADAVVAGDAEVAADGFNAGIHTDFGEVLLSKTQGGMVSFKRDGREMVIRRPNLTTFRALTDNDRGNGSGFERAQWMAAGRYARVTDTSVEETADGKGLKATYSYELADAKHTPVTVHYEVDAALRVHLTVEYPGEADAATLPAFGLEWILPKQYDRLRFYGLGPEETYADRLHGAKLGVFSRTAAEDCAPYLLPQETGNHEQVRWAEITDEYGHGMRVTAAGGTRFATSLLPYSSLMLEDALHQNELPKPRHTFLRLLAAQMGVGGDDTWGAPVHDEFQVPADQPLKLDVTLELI

T1 sequence (D4BR09 entry or part of it): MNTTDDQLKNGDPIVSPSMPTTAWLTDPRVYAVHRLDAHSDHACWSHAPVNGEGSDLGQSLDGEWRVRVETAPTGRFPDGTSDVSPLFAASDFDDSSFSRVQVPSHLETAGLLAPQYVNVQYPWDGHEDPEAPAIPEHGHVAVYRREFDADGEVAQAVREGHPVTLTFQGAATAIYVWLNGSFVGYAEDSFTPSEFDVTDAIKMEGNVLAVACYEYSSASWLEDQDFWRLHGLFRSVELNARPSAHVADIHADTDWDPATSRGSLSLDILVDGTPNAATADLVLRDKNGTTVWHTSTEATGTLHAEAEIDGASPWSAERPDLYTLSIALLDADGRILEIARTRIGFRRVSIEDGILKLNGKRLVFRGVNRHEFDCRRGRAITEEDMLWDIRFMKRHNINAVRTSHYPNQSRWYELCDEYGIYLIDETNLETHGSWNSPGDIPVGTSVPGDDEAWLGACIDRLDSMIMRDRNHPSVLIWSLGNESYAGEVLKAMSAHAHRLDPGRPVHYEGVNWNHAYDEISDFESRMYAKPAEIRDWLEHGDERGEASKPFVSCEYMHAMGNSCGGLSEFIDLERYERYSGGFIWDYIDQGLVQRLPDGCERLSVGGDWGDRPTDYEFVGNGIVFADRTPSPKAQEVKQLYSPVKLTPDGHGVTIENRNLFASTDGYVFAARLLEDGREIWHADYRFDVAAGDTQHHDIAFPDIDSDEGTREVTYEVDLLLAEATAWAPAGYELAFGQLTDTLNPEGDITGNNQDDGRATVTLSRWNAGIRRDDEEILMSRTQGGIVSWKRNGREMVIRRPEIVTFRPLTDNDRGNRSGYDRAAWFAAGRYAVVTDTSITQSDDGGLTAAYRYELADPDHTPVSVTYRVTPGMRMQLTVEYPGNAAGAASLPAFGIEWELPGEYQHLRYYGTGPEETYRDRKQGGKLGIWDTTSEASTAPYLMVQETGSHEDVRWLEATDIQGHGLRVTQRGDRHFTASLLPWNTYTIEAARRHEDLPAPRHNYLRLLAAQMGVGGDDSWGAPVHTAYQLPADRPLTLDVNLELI

| Ki (β-gal II) [mM] | Ki (β-gal I) [mM] | Compound |
| --- | --- | --- |
| 37 ± 4 |  | OC[C@H]1OC(O)[C@H](O)[C@@H](O)[C@@H]1O (stereo partly drawn) [D-glucose] |
| 34 ± 5 | 15 ± 3 | OC[C@H]1OC(O)[C@H](O)[C@@H](O)[C@H]1O (stereo partly drawn) [D-galactose] |

— article PMC4121272, “Two β-Galactosidases from the Human Isolate Bifidobacterium breve DSM 20213: Molecular Cloning and Expression, Biochemical Characterization and Synthesis of Galacto-Oligosaccharides” (PLoS ONE, 2014)
